The text below walks through data of ChEMBL document CHEMBL1143871, “Small P-gp modulating molecules: SAR studies on tetrahydroisoquinoline derivatives” (Bioorg Med Chem, 2008).

Data set [1] deals with T1, ATP-dependent translocase ABCB1 (Homo sapiens, UniProt P08183). As to the kind of experiment: Inhibition of human Pgp mediated [3H]vinblastine transport in human Caco-2 cells. The format is cell-based.
In data set [2] the target is T1, ATP-dependent translocase ABCB1. As to the kind of experiment: Activation of human Pgp ATPase in human Caco-2 cells at 100 uM. The note with it: caco-2, 100 µM. The class given is cell-based.
Data set [3] can be described thus: Apparent permeability from basolateral to apical side of human Caco-2 cell membrane. The format is ADME, cell-based. On the technique in general: Passage across Caco-2 layers is used to estimate intestinal permeability.
Data set [4] is described as follows: Apparent permeability from apical to basolateral side of human Caco-2 cell membrane. The format is ADME, cell-based.
Data set [5] in a line: Ratio of apparent permeability from basolateral to apical over apical to basolateral side of human Caco-2 cell membrane.
Data set [6] concerns MCF7. As to the kind of experiment: Cytotoxic activity against adriamycin resistant human MCF7 cells assessed as LDH release at 100 uM after 24 hrs. The class given is functional. In general terms: LDH leaks from cells whose membrane has failed.
Data set [7] concerns the target T1, ATP-dependent translocase ABCB1. The data set is described as follows: Inhibition of human Pgp in adriamycin resistant MCF7 cells assessed as fold increase in accumulation of doxorubicin at 20 uM relative to control. The note with it: mcf7, 20 µM. The format is cell-based.
In data set [8] the test system is MCF7. The data set is described as follows: Antiproliferative activity against adriamycin resistant human MCF7 cells assessed by MTT assay at 100 uM after 48 hrs. In general terms: Formazan colour is commonly taken as a measure of viable cells.

Structures are written as SMILES. A value given as a limit tells only on which side of the number the result lay.

T1 sequence (P08183 whole entry): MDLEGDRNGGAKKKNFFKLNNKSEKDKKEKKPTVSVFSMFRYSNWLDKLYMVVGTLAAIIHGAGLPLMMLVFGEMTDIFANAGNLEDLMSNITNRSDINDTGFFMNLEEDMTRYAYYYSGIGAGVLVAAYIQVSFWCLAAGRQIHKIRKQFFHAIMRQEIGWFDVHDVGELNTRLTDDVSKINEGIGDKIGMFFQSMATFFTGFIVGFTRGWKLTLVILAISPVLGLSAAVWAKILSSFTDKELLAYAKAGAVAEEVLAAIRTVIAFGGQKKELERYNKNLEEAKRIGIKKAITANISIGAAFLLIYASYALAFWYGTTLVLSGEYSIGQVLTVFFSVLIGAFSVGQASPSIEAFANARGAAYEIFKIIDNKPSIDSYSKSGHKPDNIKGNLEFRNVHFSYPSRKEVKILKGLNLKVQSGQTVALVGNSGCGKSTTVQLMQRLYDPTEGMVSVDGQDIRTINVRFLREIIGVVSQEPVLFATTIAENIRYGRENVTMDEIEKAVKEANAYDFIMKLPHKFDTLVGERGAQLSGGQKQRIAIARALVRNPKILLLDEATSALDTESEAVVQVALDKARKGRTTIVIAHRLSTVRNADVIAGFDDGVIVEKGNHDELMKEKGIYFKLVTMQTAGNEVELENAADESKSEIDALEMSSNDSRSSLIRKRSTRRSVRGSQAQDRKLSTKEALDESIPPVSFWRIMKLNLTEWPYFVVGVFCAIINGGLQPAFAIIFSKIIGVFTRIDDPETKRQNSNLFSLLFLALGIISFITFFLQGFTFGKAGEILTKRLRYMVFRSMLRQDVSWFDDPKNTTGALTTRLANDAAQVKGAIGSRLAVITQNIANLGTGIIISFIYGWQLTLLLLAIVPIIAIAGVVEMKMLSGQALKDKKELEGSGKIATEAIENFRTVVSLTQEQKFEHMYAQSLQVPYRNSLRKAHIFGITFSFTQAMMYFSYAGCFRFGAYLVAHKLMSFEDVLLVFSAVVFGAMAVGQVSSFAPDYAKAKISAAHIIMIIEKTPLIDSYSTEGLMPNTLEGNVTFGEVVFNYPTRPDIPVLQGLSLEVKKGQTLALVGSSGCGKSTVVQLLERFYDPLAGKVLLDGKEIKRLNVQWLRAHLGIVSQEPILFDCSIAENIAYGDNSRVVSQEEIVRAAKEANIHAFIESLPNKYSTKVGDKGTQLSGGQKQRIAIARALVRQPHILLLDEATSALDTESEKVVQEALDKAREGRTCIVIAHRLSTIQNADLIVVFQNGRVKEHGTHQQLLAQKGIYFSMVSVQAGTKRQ

In the case of `COc1ccc2c(c1)CCCC2CCCN1CCc2cc(OC)c(OC)cc2C1` (stereo not drawn), the EC50 – broadly, the concentration that produces a half-maximal response – in data set [1] turned out to be 8.15 µM. In data set [2], this compound returned an Activity of 27%. In addition, the basolateral-to-apical permeability (Papp B→A) (in general, how fast a substance crosses the layer from the basolateral side) in data set [3] came to 351 ×10⁻⁶ cm/s. In addition, the apical-to-basolateral permeability (Papp A→B) – broadly, how fast a substance crosses the layer from the apical side – in data set [4] was 82.8 ×10⁻⁶ cm/s. Moreover, the efflux ratio (usually the permeability from basolateral to apical divided by that in the opposite direction, in the common usage) in data set [5] came out at 4.2.
`COc1ccc2c(c1)CCC=C2CCCN1CCc2cc(OC)c(OC)cc2C1` displayed a half-maximal effective concentration (EC50) in data set [1] of 83.7 µM. For the same compound, in data set [3], the Papp B→A turned out to be 151 ×10⁻⁶ cm/s. In data set [4], the apical-to-basolateral permeability (Papp A→B) is 40.7 ×10⁻⁶ cm/s. In data set [5], the efflux ratio turned out to be 3.7.
On to `COc1ccc2c(c1)C(CCCN1CCc3cc(OC)c(OC)cc3C1)CCC2` (stereo not drawn), for which the EC50 in data set [1] was found to be 10.2 µM. The compound also displayed an Activity in data set [2] of 15%. Besides, the Papp B→A in data set [3] is 170 ×10⁻⁶ cm/s. For the same compound, the Papp A→B in data set [4] came out at 46 ×10⁻⁶ cm/s. Also, in data set [5], the efflux ratio is 3.7.
For the compound `COc1cc2c(cc1OC)CN(CCCC1CCCc3cc(OC)c(OC)cc31)CC2` (stereo not drawn), in data set [1], it took 17.9 µM to reach a half-maximal effect (EC50). The same compound showed an Activity in data set [2] of 62%. Moreover, the apparent permeability from basolateral to apical (Papp B→A) in data set [3] turned out to be 440 ×10⁻⁶ cm/s. For the same compound, the Papp A→B in data set [4] came out at 86.8 ×10⁻⁶ cm/s. The efflux ratio in data set [5] turned out to be 5.1.
In turn, `COc1cc2c(cc1OC)CN(CCCC1=CCCc3cc(OC)c(OC)cc31)CC2` gave an EC50 in data set [1] of 31.6 µM. The Activity in data set [2] came out at 15%. Besides, the Papp B→A in data set [3] was 103 ×10⁻⁶ cm/s. Besides, the Papp A→B in data set [4] worked out at 67.2 ×10⁻⁶ cm/s. Also, the efflux ratio in data set [5] came out at 1.5.
In turn, `COc1ccc2c(c1)/C(=C/CCN1CCc3cc(OC)c(OC)cc3C1)CCC2` registered an EC50 in data set [1] of 4.86 µM. In data set [3], the Papp B→A turned out to be 657 ×10⁻⁶ cm/s. Moreover, the apparent permeability from apical to basolateral (Papp A→B) in data set [4] came to 166 ×10⁻⁶ cm/s. The figures for the Activity (with MCF7 [6]; in data set [7]; in the data set on MCF7 [8]) were less than 20%, 4.1 and less than 20%, respectively. Besides, the efflux ratio in data set [5] was 3.9.
On to `COc1ccc2c(c1)C(CCCN1CCc3cc(OC)c(OC)cc3C1)=CCC2`, for which it took 35.5 µM to reach a half-maximal effect in data set [1] (EC50). In data set [2], the Activity is 20%. In data set [3], the Papp B→A was found to be 332 ×10⁻⁶ cm/s. Also, the Papp A→B in data set [4] is 61 ×10⁻⁶ cm/s. In addition, in data set [5], the efflux ratio stood at 5.4.
`COc1cccc2c1CCC/C2=C\CCN1CCCCC1` gave an EC50 in data set [1] of 8.2 µM. For the same compound, the apparent permeability from basolateral to apical (Papp B→A) in data set [3] was 256 ×10⁻⁶ cm/s. Besides, the apical-to-basolateral permeability (Papp A→B) in data set [4] amounted to 58.4 ×10⁻⁶ cm/s. In data set [5], the efflux ratio amounted to 4.4.
Turning to `COc1cc2c(cc1OC)CN(CC/C=C1\CCCc3c(OC)cccc31)CC2`, a half-maximal effect in data set [1] (EC50) was put at 1.64 µM. The Papp B→A in data set [3] came to 38.6 ×10⁻⁶ cm/s. Moreover, the Papp A→B in data set [4] is 23.7 ×10⁻⁶ cm/s. For the same compound, the Activity is less than 20% in the data set with MCF7 [6], 5.7 in data set [7] and 25% in the data set on MCF7 [8]. Also, the efflux ratio in data set [5] was 1.6.
As for `COc1cc2c(cc1OC)CN(CCC=C1CCCCC1)CC2`, the 50% effective concentration (EC50) in data set [1] was 15.2 µM. In data set [3], the basolateral-to-apical permeability (Papp B→A) stood at 240 ×10⁻⁶ cm/s. The apparent permeability from apical to basolateral (Papp A→B) in data set [4] was 77.4 ×10⁻⁶ cm/s. Moreover, the efflux ratio in data set [5] turned out to be 3.1.
In data set [1], `COc1cccc2c1CCCC2CCCN1CCN(C2CCCCC2)CC1` (stereo not drawn) came in with an EC50 of 0.55 µM. Also, the Papp B→A in data set [3] worked out at 436 ×10⁻⁶ cm/s. The Papp A→B in data set [4] turned out to be 250 ×10⁻⁶ cm/s. In addition, the efflux ratio in data set [5] worked out at 1.7.
The compound `COc1cc2c(cc1OC)CN(CCCC1CCCc3c(OC)cccc31)CC2` (stereo not drawn) returned a 50% effective concentration (EC50) in data set [1] of 6.35 µM. Further, the Activity in data set [2] is listed as 70%; in the data set on MCF7 [6] it was less than 20%; in data set [7] it was 4.8; in the data set with MCF7 [8] it was less than 20%. Moreover, the apparent permeability from basolateral to apical (Papp B→A) in data set [3] is 104 ×10⁻⁶ cm/s. Besides, the Papp A→B in data set [4] worked out at 5.6 ×10⁻⁶ cm/s. In data set [5], the efflux ratio was 18.
In data set [1], `COc1cc2c(cc1OC)CN(CCCC1=CCCc3c(OC)cccc31)CC2` showed a concentration giving a half-maximal response (EC50) of 15 µM. In data set [2], this compound displayed an Activity of 30%. For the same compound, in data set [3], the Papp B→A was found to be 114 ×10⁻⁶ cm/s. The Papp A→B in data set [4] was 16 ×10⁻⁶ cm/s. Moreover, in data set [5], the efflux ratio turned out to be 7.1.
